In patent publication US20230151024A1, “STING AGONISTIC COMPOUND” (ONO PHARMACEUTICAL CO., LTD., priority 2020, published 2023):

Legend:
[1] = Conversion of a prodrug to an active body thereof in human plasma; format: in vitro ADME; settings: 1 μmol/L, 37° C. for 60 minutes, conversion to the compound in Example 3
Description: (§1) The solutions of the example compounds in Table 5 below (50 μmol/L, 50% acetonitrile with 5% DMSO) were added to plasma (245 μL), respectively, such that the final concentrations thereof become 1 μmol/L. After keeping them at 37° C. for 60 minutes, 40 μL of the reaction solutions were taken therefrom, and added to 200 μL of acetonitrile/ethanol (7:3) containing Candesartan (internal standard).
(§2) The concentration of the compound prepared in Example 3 in the plasma resulting from the above reaction was analyzed by LC-MS/MS according to the following method.
(§3) Prominence UFLCXR (Shimadzu Corporation), API5000 (AB Sciex)
(§4) The whole amount was transferred to a filter plate for protein removal and filtered by suction, and the filtrate thereof was diluted 2-fold with water. [LC column] Shim-pack XR-ODSII 2.0 mm ID x 75 mm (Shimadzu Corporation)
(§5) Column temperature: 40° C. Mobile phase: A: 0.2% formic acid in 5 mM ammonium acetate solution; and
(§6) Electrospray, positive mode, multiple reaction monitoring;
(§7) Compound prepared in Example 3: m/z353.0→m/z311.2, DP: 80, CE: 35; and Candesartan (internal standard): m/z309.1→m/z163.0, DP: 71, CE: 21.
(§8) A regression formula was calculated from the peak area ratio of the real sample and the standard sample for the calibration curve in the same matrix (peak area of the compound in Example 3/peak area of Candesartan), and the peak area ratio of the real sample was substituted into the regression formula to calculate the quantitative value. 60 minutes later, the concentration of the compound in Example 3 in the sample was compared, and the conversion rate (%) thereof was calculated using the following formula:
(§9) Conversion rate (%)=Concentration of the compound in Example 3 in the sample after 60 minutes (μmol/L)×100

[2] = Conversion of a prodrug to an active body thereof in mouse plasma; format: in vitro ADME; settings: 1 μmol/L, 37° C. for 60 minutes, conversion to the compound in Example 3
Description: as §1, §2, §3, §4, §5, §6, §7, §8, §9

SMILES | Plasma conversion rate Human [1] | Plasma conversion rate Mouse [2]
CC(=O)c1cc(-c2ncc(-c3cnn(COP(=O)(O)O)c3)c3onc(N)c23)c(F)cc1N [Example 10(1), (4-(4-(5-acetyl-4-amino-2-fluorophenyl)-3-aminoisoxazolo[4,5-c]pyridin-7-yl)-1H-pyrazol-1-yl)methyl dihydrogen phosphate] | + + + | + + +
CC(=O)c1cc(-c2ncc(-c3cnn(COC(=O)N(C)c4ncccc4COP(=O)(O)O)c3)c3onc(N)c23)c(F)cc1N [Example 12(1), (4-(5-(5-acetyl-4-amino-2-fluorophenyl)-3-aminoisoxazolo[4,5-c]pyridin-7-yl)-1H-pyrazol-1-yl)methyl methyl(3-((phosphonooxy)methyl)pyridin-2-yl)carbamate] | + + | + (the conversion rate of each example compound in the table to the compound in Example 3 is less than 25%)
CNCC(=O)OCc1cccnc1N(C)C(=O)OC(C)n1cc(-c2cnc(-c3cc(C(C)=O)c(N)cc3F)c3c(N)noc23)cn1 (stereo not shown) [Example 12(2), (2-(((1-(4-(4-(5-acetyl-4-amino-2-fluorophenyl)-3-aminoisoxazolo[4,5-c]pyridin-7-yl)-1H-pyrazol-1-yl)ethoxy)carbonyl)(methyl)amino)pyridin-3-yl)methyl methylglycinate] | + + + | + + +
CNCC(=O)OCc1cccnc1N(C)C(=O)OCn1cc(-c2cnc(-c3cc(C(C)=O)c(N)cc3F)c3c(N)noc23)cn1.Cl [Example 12(3), 2-((2-((((4-(4-(5-acetyl-4-amino-2-fluorophenyl)-3-aminoisoxazolo[4,5-c]pyridin-7-yl)-1H-pyrazol-1-yl)methoxy)carbonyl)(methyl)amino)pyridin-3-yl)methoxy)-N-methyl-2-oxoethane-1-ammonium chloride] | + + + | + + +
CC(=O)c1cc(-c2ncc(-c3cnn(COC(=O)OCCN4CCOCC4)c3)c3onc(N)c23)c(F)cc1N.Cl [Example 12(4), (4-(4-(5-acetyl-4-amino-2-fluorophenyl)-3-aminoisoxazolo[4,5-c]pyridin-7-yl)-1H-pyrazol-1-yl)methyl (2-morpholinoethyl)carbonate hydrochloride] | + + + | + + +
CC(=O)c1cc(-c2ncc(-c3cnn(COC(=O)OC[C@H]4OC(O)[C@H](O)[C@@H](O)[C@@H]4O)c3)c3onc(N)c23)c(F)cc1N (stereo partly drawn) [Example 12(5), (4-(4-(5-acetyl-4-amino-2-fluorophenyl)-3-aminoisoxazolo[4,5-c]pyridin-7-yl)-1H-pyrazol-1-yl)methyl (((2R,3S,4S,5R)-3,4,5,6-tetrahydroxytetrahydro-2H-pyran-2-yl)methyl) carbonate] | + + + | + + +
CC(=O)c1cc(-c2ncc(-c3cnn(COC(=O)OC[C@H]4OC(O)[C@H](N)[C@@H](O)[C@@H]4O)c3)c3onc(N)c23)c(F)cc1N.Cl (stereo partly drawn) [Example 12(6), (4-(4-(5-acetyl-4-amino-2-fluorophenyl)-3-aminoisoxazolo[4,5-c]pyridin-7-yl)-1H-pyrazol-1-yl)methyl (((2R,3S,4R,5R)-5-amino-3,4,6-trihydroxytetrahydro-2H-pyran-2-yl)methyl) carbonate hydrochloride] | + + + | + + +
CC(=O)c1cc(-c2ncc(-c3cnn(C(=O)NCC(=O)O)c3)c3onc(N)c23)c(F)cc1N [Example 12(9), (4-(4-(5-acetyl-4-amino-2-fluorophenyl)-3-aminoisoxazolo[4,5-c]pyridin-7-yl)-1H-pyrazole-1-carbonyl)glycine] | + (the conversion rate of each example compound in the table to the compound in Example 3 is less than 25%) | + (the conversion rate of each example compound in the table to the compound in Example 3 is less than 25%)
COC(=O)n1cc(-c2cnc(-c3cc(C(C)=O)c(N)cc3F)c3c(N)noc23)cn1 [Example 12(10), methyl 4-(4-(5-acetyl-4-amino-2-fluorophenyl)-3-aminoisoxazolo[4,5-c]pyridin-7-yl)-1H-pyrazole-1-carboxylate] | + + + | + + +
CC(=O)c1cc(-c2ncc(-c3cnn(COP(=O)(O)OCOC(=O)OC(C)C)c3)c3onc(N)c23)c(F)cc1N [Example 12(11), ((((4-(4-(5-acetyl-4-amino-2-fluorophenyl)-3-aminoisoxazolo[4,5-c]pyridin-7-yl)-1H-pyrazol-1-yl)methoxy)(hydroxy)phosphoryl)oxy)methyl isopropyl carbonate] | + (the conversion rate of each example compound in the table to the compound in Example 3 is less than 25%) | + (the conversion rate of each example compound in the table to the compound in Example 3 is less than 25%)
CC(=O)c1cc(-c2ncc(-c3cnn(COC(=O)N4CCC(N5CCCCC5)CC4)c3)c3onc(N)c23)c(F)cc1N [Example 12, (4-(4-(5-acetyl-4-amino-2-fluorophenyl)-3-aminoisoxazolo[4,5-c]pyridin-7-yl)-1H-pyrazol-1-yl)methyl [1,4′-bipiperidine]-1′-carboxylate] | + (the conversion rate of each example compound in the table to the compound in Example 3 is less than 25%) | + (the conversion rate of each example compound in the table to the compound in Example 3 is less than 25%)
